Results as given in patent US20100069340A1, “PHARMACEUTICAL COMPOSITIONS OF AN SRC KINASE INHIBITOR AND AN AROMATASE INHIBITOR” (Wyeth, priority 2008, published 2010).
Like-named read-outs stand apart in the source and are kept apart here.

Legend:
[1] = test system: MCF7; assay: Cell proliferation assay (CellTiter Glo), MCF7; assay type: cell-based; conditions: for IC50: Homo sapiens
Method: (§1) Cell lines were obtained from ATCC. Estrogen was obtained from SIGMA, 4-hydroxytamoxifen was obtained from SIGMA, Bosutinib was used for these studies. Charcoal-stripped serum and phenol red-free medium was obtained from Invitrogen. CellTiter Glo was obtained from Promega.
(§2) Cell cultures. Proliferation assays with cells in complete fetal calf serum were performed with medium containing phenol red. For all assays examining estrogen-dependence, cells were cultured in phenol red-free medium; DMEM/F12 (MCF7), RPMI1640 (MDA-MB-361, T47D) MEM (BT20, MDA-MB-231) McCoys5A modified (SKBR3), Leibowitz' L15 medium supplemented with 10 ng/mL insulin (MDA-MB-435 and MDA-MB-468) with 10% fetal bovine serum supplemented with glutamine and gentamicin. For proliferation assays, trypsinized cells were subjected to three cycles of centrifugation and resuspension in phenol red-free medium supplemented with charcoal stripped medium (5% final), glutamine and Pen/Strep. Cells were plated on day 0, with or without estrogen (10 nM final concentration). On day 1, 4-hydroxytamoxifen and SKI-606 or DMSO were added as a serial dilution. Cells were incubated for 7 days, after which CellTiter Glo (Promega) was added as recommended by the manufacturer. After mixing and two hours incubation on the bench, plates were read on an Envision reader. […] The 10 uM data point was dropped for these two lines since there was a clear plateau prior to the sharp drop in luminescence observed at 10 uM compound. The IC50 was calculated using a floating minima corresponding to the lowest luminescence value at 5 uM.
Cell proliferation assays were performed in two formats; a three day proliferation assay in fully supplemented medium with phenol red, and a 7 day proliferation assay in phenol red free medium supplemented with charcoal-stripped medium. […] ER positive T47D cells were slightly more sensitive to SKI-606 in the presence of estrogen. BT20 cells were equally sensitive to SKI-606 in stripped serum medium, regardless of whether estrogen was present.
Proliferation data for SKI-606 in various breast tumor lines in complete medium (10% FCS) and charcoal stripped serum with no phenol red (no E2, E2) with and without 10 nM estrogen. The complete medium data were obtained in 3-day assays, while stripped serum assays were extended for 7 days with one change of medium at day 5. The IC50 values for the BT20 line was calculated using the “plateau” cell number evident at 5 μM SKI-606.

[2] = test system: MDA-MB-435 (ER neg); assay: Cell proliferation assay, MDA-MB-435; assay type: cell-based; conditions: Homo sapiens, MDA-MB-435, 72 h; 3 Day assay, complete medium (10% FCS)
Method: as §1
as §2, with “Cells were incubated for 7 days, after which CellTiter Glo (Promega) was added as recommended by the manufacturer.” left out, “The IC50 was calculated using a floating minima corresponding to the lowest luminescence value at 5 uM.” left out

[3] = test system: MDA-MB-231 (ER neg); assay: Cell proliferation assay (CellTiter Glo), MDA-MB-231; assay type: cell-based; conditions: Homo sapiens
Method: as §1, §2
Cell proliferation assays were performed in two formats; a three day proliferation assay in fully supplemented medium with phenol red, and a 7 day proliferation assay in phenol red free medium supplemented with charcoal-stripped medium. […] ER positive T47D cells were slightly more sensitive to SKI-606 in the presence of estrogen. BT20 cells were equally sensitive to SKI-606 in stripped serum medium, regardless of whether estrogen was present. […]

[4] = test system: advanced or metastatic breast cancer; assay: Phase 2 open-label study of bosutinib, efficacy; assay type: in vivo, human; conditions: 400 mg once-daily
Method: (§3) In a phase 2, open-label, study of bosutinib in subjects with advanced or metastatic breast cancer where bosutinib is given at 400 mg once-daily, 73 total patients were randomized. As of 9 Jun. […] All of the responding patients had ER/PgR+ metastatic disease, but were less heavily pretreated with chemotherapy than typical patients and none had received prior endocrine therapy. […] In that trial, the median PFS was 15 weeks for all patients, 15.6 weeks and 14.9 weeks in ER+ and/or PgR+ and ER+ and/or PgR+, HER2-patients subgroups, respectively. There were 51 ER/PgR+ patients enrolled in the trial and a little more than half had received prior endocrine therapy, out of them 33 patients were ER/PgR+, HER2-. The preliminary safety data available for 73 subjects as of 9 Jun. 2008 are consistent with data from other ongoing studies. TEAEs were most frequently associated with gastrointestinal disorders (diarrhea, 66%; nausea, 55%; vomiting, 47%; abdominal pain, 12%; dyspepsia, 10%), general disorders (fatigue, 26%, asthenia, 19%, peripheral oedema, 11%; pyrexia, 10%), infections and infestations (16%), metabolism disorders (ALT increase, 12%; AST increase, 12%, weight loss, 11%; anorexia, 18%), musculoskeletal disorders (anthralgia, 12%; back pain, 12%), headache (14%), and rash (14%). Out of all of these TEAEs, only gastrointestinal disorders (diarrhea, 64%; nausea, 51%; vomiting, 42%; abdominal pain, 10%), general disorders (fatigue, 16%, asthenia, 14%), metabolism disorders (ALT increase, 11%; AST increase, 10%; anorexia, 15%) and rash (10%) were considered at least possibly related to bosutinib.

[5] = test system: T47D; assay: Cell proliferation assay (CellTiter Glo), T47D; assay type: cell-based; conditions: Homo sapiens, 168 h, 7 Day assay, charcoal stripped serum, no phenol red
Method: as §1
as §2, with “Cells were incubated for 7 days, after which CellTiter Glo (Promega) was added as recommended by the manufacturer.” left out, “The IC50 was calculated using a floating minima corresponding to the lowest luminescence value at 5 uM.” left out

[6] = Phase 2 open-label study of bosutinib, safety (TEAEs); assay type: in vivo, human; conditions: 400 mg once-daily, 73 subjects
Method: as §3

Compound COc1cc(Nc2c(C#N)cnc3cc(OCCCN4CCN(C)CC4)c(OC)cc23)c(Cl)cc1Cl [bosutinib] has an IC50 ([1]; MCF7, 72 h, 3 Day assay, complete medium (10% FCS), read-out: IC50 (uM) 10% FCS) of 6.5 µM, an IC50 ([1]; MCF7, 168 h, 7 Day assay, charcoal stripped serum, no phenol red, 10 nM estrogen, read-out: IC50 (uM) E2) of 0.86 µM and an IC50 ([1]; MCF7, 168 h, 7 Day assay, charcoal stripped serum, no phenol red, without estrogen, cells did not grow well, data less reliable, read-out: IC50 (uM) no E2) of 0.08 µM. The “effect on estrogen-dependent and estrogen-independent growth” value ([1]; MCF7) was “inhibited estrogen-dependent and estrogen-independent growth”, the IC50 [2] was 3.4 µM and the IC50 ([3]; MDA-MB-231, 72 h, 3 Day assay, complete medium (10% FCS), read-out: IC50 (uM) 10% FCS) was 4.3 µM. The IC50 ([3]; MDA-MB-231, 168 h, 7 Day assay, charcoal stripped serum, no phenol red, 10 nM estrogen, read-out: IC50 (uM) E2) was 5.05 µM, the IC50 ([3]; MDA-MB-231, 168 h, 7 Day assay, charcoal stripped serum, no phenol red, without estrogen, read-out: IC50 (uM) no E2) was 5.1 µM and the “tumor shrinkage in the near response” value [4] was 29%. For the same compound, the clinical benefit ([4]; 73 patients, responders plus stable disease ≧24 weeks) was 27.4%, the near response ([4]; of 73 patients) was 1 and the partial response ([4]; of 73 patients) was 4 subjects. The “stable disease ≧24 weeks” value ([4]; of 73 patients) was 13 patients, the “median PFS” value ([4]; ER+ and/or PgR+ subgroup) was 15.6 weeks and the “median PFS” value ([4]; ER+ and/or PgR+, HER2- subgroup) was 14.9 weeks. For the same compound, the “median PFS” value ([4]; all patients) was 15 weeks, the IC50 ([5]; 10 nM estrogen, read-out: IC50 (uM) E2) was 1.28 µM and the IC50 ([5]; without estrogen, read-out: IC50 (uM) no E2) was 2.85 µM. For the same compound, the “TEAE ALT increase” value ([6]; all TEAEs) was 12%, the “TEAE AST increase” value ([6]; all TEAEs) was 12% and the TEAE abdominal pain ([6]; all TEAEs) was 12%. For the same compound, the TEAE anorexia ([6]; all TEAEs) was 18%, the TEAE anthralgia ([6]; all TEAEs) was 12% and the TEAE asthenia ([6]; all TEAEs) was 19%. The TEAE back pain ([6]; all TEAEs) was 12%, the TEAE diarrhea ([6]; all TEAEs) was 66% and the TEAE dyspepsia ([6]; all TEAEs) was 10%. The TEAE fatigue ([6]; all TEAEs) was 26%, the TEAE headache ([6]; all TEAEs) was 14% and the “TEAE infections and infestations” value ([6]; all TEAEs) was 16%. For the same compound, the TEAE nausea ([6]; all TEAEs) was 55%, the TEAE peripheral oedema ([6]; all TEAEs) was 11% and the TEAE pyrexia ([6]; all TEAEs) was 10%. For the same compound, the TEAE rash ([6]; all TEAEs) was 14%, the TEAE vomiting ([6]; all TEAEs) was 47% and the TEAE weight loss ([6]; all TEAEs) was 11%. The “TEAE ALT increase, at least possibly related to bosutinib” value ([6]; related TEAEs) was 11%, the “TEAE AST increase, at least possibly related to bosutinib” value ([6]; related TEAEs) was 10% and the “TEAE abdominal pain, at least possibly related to bosutinib” value ([6]; related TEAEs) was 10%. The “TEAE anorexia, at least possibly related to bosutinib” value ([6]; related TEAEs) was 15%, the “TEAE asthenia, at least possibly related to bosutinib” value ([6]; related TEAEs) was 14% and the “TEAE diarrhea, at least possibly related to bosutinib” value ([6]; related TEAEs) was 64%. The “TEAE fatigue, at least possibly related to bosutinib” value ([6]; related TEAEs) was 16%, the “TEAE nausea, at least possibly related to bosutinib” value ([6]; related TEAEs) was 51% and the “TEAE rash, at least possibly related to bosutinib” value ([6]; related TEAEs) was 10%. The “TEAE vomiting, at least possibly related to bosutinib” value ([6]; related TEAEs) was 42%.
